Measured values taken from paper PMC5182151 (International journal of pharmaceutics, 2016).

How the values were obtained:
[1] = physchem; assay type: physicochemical
[2] = VD3 dispersion in water, UV light for 9.5h; ref Luo et al., 2012; cited from earlier work
[3] = Stability of VD3-TyroSphere formulations during storage; assay type: physicochemical; settings: in Transcutol (1mg/ml), 2 months storing at room temperature

**Q.** What does the source list for C=C1CC[C@H](O)C/C1=C/C=C1\CCC[C@]2(C)[C@@H]([C@H](C)CCCC(C)C)CC[C@@H]12 [VD3, cholecalciferol]?
**A.** half-life [1]: 76 h; drug lost in first 24h exposure to UV light ([1]; VD3 in methanol solution, 254 nm UV): ~20%; photodegradation rate constant (zero-order) ([1]; VD3 in methanol, 254 nm UV): -1.194 µg/mL/h; VD3 left after 134 h UV exposure ([1]; methanol formulation, 254 nm UV): 21%; VD3 remained after UV exposure [2]: about 30%; VD3 detected [3]: 2%
